Assay results taken from patent publication US20120165331A1, “Di/tri-aza-spiro-C9-C11alkanes” (priority 2010, published 2012).

Legend:
[1] = biological target: T1, human orexin 1 receptor (Homo sapiens, UniProt O43613); assay: Radioligand binding assay ([3H]-SB649868 competition), human orexin 1 receptor; settings: radioligand [3H]-SB649868; read-out: Binding hOx1R Kd
T1 construct: expressed in transfected cells
T1 sequence (O43613 1-425): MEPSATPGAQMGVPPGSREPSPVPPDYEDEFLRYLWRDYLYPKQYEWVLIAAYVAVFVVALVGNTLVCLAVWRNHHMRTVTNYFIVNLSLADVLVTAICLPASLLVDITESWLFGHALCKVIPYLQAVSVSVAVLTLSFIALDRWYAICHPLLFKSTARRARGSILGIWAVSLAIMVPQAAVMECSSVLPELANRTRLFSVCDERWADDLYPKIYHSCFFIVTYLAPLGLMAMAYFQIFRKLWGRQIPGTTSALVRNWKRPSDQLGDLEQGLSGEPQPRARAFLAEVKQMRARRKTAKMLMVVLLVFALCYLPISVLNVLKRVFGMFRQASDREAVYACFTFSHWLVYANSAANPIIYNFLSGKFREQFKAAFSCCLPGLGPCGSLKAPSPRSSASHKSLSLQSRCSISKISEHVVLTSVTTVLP
Protocol: (§1) Radioligand Binding Assay
(§2) For crude cell membrane preparations, cells (CHO, Chinese hamster ovary or HEK, human embryonic kidney) expressing human orexin 1 or human orexin 2 receptors, were washed with HEPES (10 mM, pH 7.5), scraped off the culture plates with the same buffer, and centrifuged at 4° C. for 5 min at 2500×g. The cell pellet was either stored at −80° C. or used directly. Before the experiments, cell membranes were re-suspended in binding assay buffer (10 mM HEPES, 0.5% (w/v) bovine serum albumin, pH 7.5) by homogenisation with a Polytron homogeniser at 50 Hz for 20 s. Cell membranes were also used as made available by commercial providers.
(§3) Bound radioactivity was measured, and data were analysed with the program XLFIT or Graphpad Prism. Protein concentration was determined according to the Bradford/BioRad Protein Assay Kit.
(§4) In competition experiments, cell homogenates (150 μl) were incubated in assay buffer (10 mM HEPES, pH 7.5, 0.5% (w/v) bovine serum albumin, 5 mM MgCl2, 1 mMCaCl2, and tween 0.05%) for 1 h at room temperature with about 1 nM of the radioligand [^3H]-SB649868, 66 Ci/mmole, 50 μl), and with various concentrations of compounds of the invention (50 μl) in triplicates; non-specific binding was determined in the presence of almorexant (10 μM). Reactions were terminated by vacuum filtration, 3 washes of ice cold wash buffer (Tris-HCl pH 7.4/10 mM, with NaCl 154 mM). Competition data is expressed in Table 1 as Kd [μM].

[2] = biological target: T1, human orexin 1 receptor; assay: Calcium accumulation in cells (FLIPR), antagonism of orexin A, human orexin 1 receptor; type: cell-based; settings: for Ki: calcium accumulation, antagonism of orexin A, Cheng-Prusoff corrected, read-out: FLIPR hOx1R Ki; for inhibition at 10 µM: measured at a concentration of 10 μM of compound, read-out: FLIPR hOx1R % inhibition
[3] = biological target: T2, human orexin 2 receptor (Homo sapiens, UniProt O43614); assay: Radioligand binding assay ([3H]-SB649868 competition), human orexin 2 receptor; settings: radioligand [3H]-SB649868; read-out: Binding hOx2R Kd
T2 construct: expressed in transfected cells
T2 sequence (O43614 1-444): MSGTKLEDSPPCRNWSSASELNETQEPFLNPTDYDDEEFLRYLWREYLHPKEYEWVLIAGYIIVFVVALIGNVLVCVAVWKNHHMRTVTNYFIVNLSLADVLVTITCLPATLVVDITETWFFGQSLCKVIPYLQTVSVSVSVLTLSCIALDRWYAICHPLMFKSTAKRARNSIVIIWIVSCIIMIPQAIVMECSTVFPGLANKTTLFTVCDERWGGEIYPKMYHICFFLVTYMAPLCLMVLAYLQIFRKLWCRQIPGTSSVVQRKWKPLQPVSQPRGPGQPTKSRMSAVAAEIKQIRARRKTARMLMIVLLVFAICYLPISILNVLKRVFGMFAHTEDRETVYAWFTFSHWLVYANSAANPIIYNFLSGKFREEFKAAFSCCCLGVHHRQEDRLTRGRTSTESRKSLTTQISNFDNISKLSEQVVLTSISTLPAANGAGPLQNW
Protocol: as §1, §2, §3, §4

[4] = biological target: T2, human orexin 2 receptor; assay: Calcium accumulation in cells (FLIPR), antagonism of orexin A, human orexin 2 receptor; type: cell-based; settings: for Ki: calcium accumulation, antagonism of orexin A, Cheng-Prusoff corrected, read-out: FLIPR hOx2R Ki; for inhibition at 10 µM: measured at a concentration of 10 μM of compound, read-out: FLIPR hOx2R % inhibition

## Cc1ccc(C)c(CN2C(=O)OCC23CCN(c2cnc4ccccc4n2)CC3)c1 [Example 8.20, 1-(2,5-Dimethylbenzyl)-8-(quinoxalin-2-yl)-3-oxa-1,8-diazaspiro[4.5]decan-2-one]
[1]
  Kd: 171 nM
[2]
  Ki: 141 nM
[3]
  Kd: 152 nM
[4]
  Ki: 14 nM

## O=C1OCC2(CCN(c3cnc4ccccc4n3)CC2)N1Cc1cccc2[nH]ccc12 [Example 8.22, 1-((1H-Indol-4-yl)methyl)-8-(quinoxalin-2-yl)-3-oxa-1,8-diazaspiro[4.5]decan-2-one]
[1]
  Kd: 986 nM
[2]
  Ki: 645 nM
[3]
  Kd: 290 nM
[4]
  Ki: 38 nM

## COCc1cccc(-c2oc(C)nc2CN2CCNC3(CCN(c4nc(C)cc(C)n4)CC3)C2=O)c1 [Example 1.30, 9-(4,6-Dimethyl-pyrimidin-2-yl)-4-((5-(3-(methoxymethyl)phenyl)-2-methyl-oxazol-4-yl)methyl)-1,4,9-triazaspiro[5.5] undecan-5-one]
[1]
  Kd: 2140 nM
[2]
  inhibition at 10 µM: 51%
[3]
  Kd: 114 nM
[4]
  Ki: 29 nM

## COc1cc(C)nc(N2CCC3(CCN(Cc4c[nH]c5ccccc45)C3=O)CC2)n1 [Example 3.18, 2-(1H-Indol-3-ylmethyl)-8-(4-methoxy-6-methyl-pyrimidin-2-yl)-2,8-diaza-spiro[4.5]decan-1-one]
[2]
  Ki: 1240 nM
[3]
  Kd: 1030 nM
[4]
  Ki: 37 nM

## COc1cc(C)nc(N2CCC3(CC2)OCCN(Cc2c[nH]c4ccccc24)C3=O)n1 [Example 2.18, 4-((1H-Indol-3-yl)methyl)-9-(4-methoxy-6-methylpyrimidin-2-yl)-1-oxa-4,9-diazaspiro[5.5]undecan-5-one]
[1]
  Kd: 625 nM
[2]
  Ki: 383 nM
[3]
  Kd: 23 nM
[4]
  Ki: 4 nM

## Cc1cc(C)nc(N2CCC3(CC2)OCCN(Cc2n[nH]nc2-c2ccccc2)C3=O)n1 [Example 2.14, 9-(4,6-Dimethylpyrimidin-2-yl)-4-((5-phenyl-2H-1,2,3-triazol-4-yl)methyl)-1-oxa-4,9-diazaspiro[5.5]undecan-5-one]
[2]
  Ki: 2720 nM
[3]
  Kd: 241 nM
[4]
  Ki: 50 nM

## COCc1cccc(-c2nn(C)nc2CN2CCNC3(CCN(c4nc(C)cc(C)n4)CC3)C2=O)c1 [Example 1.76, 9-(4,6-dimethyl-pyrimidin-2-yl)-4-((5-(3-(methoxy-methyl)phenyl)-2-methyl-2H-1,2,3-triazol-4-yl)methyl)-1,4,9-triazaspiro[5.5] undecan-5-one]
[2]
  Ki: 1640 nM
[3]
  Kd: 174 nM
[4]
  Ki: 86 nM

## COc1cccc(-c2sc(C)nc2CN2CCNC3(CCN(c4nc(C)cc(C#N)n4)CC3)C2=O)c1 [Example 1.25, 2-(4-((5-(3-Methoxyphenyl)-2-methylthiazol-4-yl)methyl)-5-oxo-1,4,9-triazaspiro[5.5]undecan-9-yl)-6-methylpyrimidine-4-carbonitrile]
[2]
  inhibition at 10 µM: 31%
[3]
  Kd: 394 nM
[4]
  Ki: 76 nM

## COc1cc(C)nc(N2CCC3(CCN(Cc4n[nH]c5ccccc45)C3=O)CC2)n1 [Example 3.21, 2-((1H-indazol-3-yl)methyl)-8-(4-methoxy-6-methylpyrimidin-2-yl)-2,8-diazaspiro[4.5]decan-1-one]
[2]
  Ki: 1010 nM
[3]
  Kd: 699 nM
[4]
  Ki: 117 nM

## COCc1noc(-c2ccccc2CN2CCNC3(CCN(c4nc(C)cc(C)n4)CC3)C2=O)n1 [Example 1.63, 9-(4,6-dimethyl-pyrimidin-2-yl)-4-(2-(3-(methoxymethyl)-1,2,4-oxadiazol-5-yl)benzyl)-1,4,9-triazaspiro[5.5] undecan-5-one]
[2]
  Ki: 4080 nM
[3]
  Kd: 252 nM
[4]
  Ki: 46 nM

## Cc1cc(C)nc(N2CCC3(CCN(Cc4c[nH]c5ccccc45)C3=O)CC2)n1 [Example 3.1, 2-((1H-Indol-3-yl)methyl)-8-(4,6-dimethylpyrimidin-2-yl)-2,8-diazaspiro[4.5]decan-1-one]
[2]
  Ki: 1900 nM
[3]
  Kd: 228 nM
[4]
  Ki: 32 nM

## COc1cccc(-c2oc(C)nc2CN2CCNC3(CCN(c4nc(C)cc(C#N)n4)CC3)C2=O)c1 [Example 1.16, 2-(4-((5-(3-Methoxyphenyl)-2-methyloxazol-4-yl)methyl)-5-oxo-1,4,9-triazaspiro[5.5]undecan-9-yl)-6-methylpyrimidine-4-carbonitrile]
[2]
  inhibition at 10 µM: 35%
[3]
  Kd: 188 nM
[4]
  Ki: 31 nM

## COc1cncc(-c2cn(C)nc2CN2CCNC3(CCN(c4nc(C)cc(C)n4)CC3)C2=O)c1 [Example 1.55, 9-(4,6-Dimethyl-pyrimidin-2-yl)-4-((4-(5-methoxypyridin-3-yl)-1-methyl-1H-pyrazol-3-yl)methyl)-1,4,9-triazaspiro[5.5] undecan-5-one]
[1]
  Kd: 5870 nM
[3]
  Kd: 162 nM
[4]
  Ki: 16 nM

## Cc1cc(C#N)nc(N2CCC3(CC2)NCCN(Cc2nc(C)oc2-c2ccccc2)C3=O)n1 [Example 1.21, 6-Methyl-2-(4-((2-methyl-5-phenyloxazol-4-yl)methyl)-5-oxo-1,4,9-triazaspiro[5.5]undecan-9-yl) pyrimidine-4-carbonitrile]
[2]
  inhibition at 10 µM: 29%
[4]
  Ki: 337 nM

## COc1ccnc(N2CCC3(CCN(Cc4n[nH]c5ccccc45)C3=O)CC2)n1 [Example 3.16, 2-(1H-Indazol-3-ylmethyl)-8-(4-methoxy-pyrimidin-2-yl)-2,8-diaza-spiro[4.5]decan-1-one]
[2]
  inhibition at 10 µM: 39%
[4]
  Ki: 673 nM

## Cc1ccnc(N2CCC3(CC2)NCCN(Cc2c[nH]c4ccccc24)C3=O)n1 [Example 1.6, 4-((1H-Indol-3-yl)methyl)-9-(4-methylpyrimidin-2-yl)-1,4,9-triazaspiro[5.5] undecan-5-one]
[2]
  inhibition at 10 µM: 26%
[4]
  Ki: 222 nM

## COc1cccc(N2CCC3(CCN(Cc4c[nH]c5ccccc45)C3=O)CC2)n1 [Example 3.4, 2-((1H-Indol-3-yl)methyl)-8-(6-methoxypyridin-2-yl)-2,8-diazaspiro[4.5]decan-1-one]
[2]
  Ki: 3770 nM
[4]
  Ki: 287 nM

## O=C1COCC2(CCN(c3cnc4ccccc4n3)CC2)N1Cc1cccc(-c2cccnc2)c1 [Example 8.12, 1-(3-(Pyridin-3-yl)benzyl)-9-(quinoxalin-2-yl)-4-oxa-1,9-diazaspiro[5.5]undecan-2-one]
[2]
  Ki: 232 nM
[4]
  inhibition at 10 µM: 30%

## Cc1nc(N2CCOCC2)cc(N2CCC3(CCN(Cc4c[nH]c5ccccc45)C3=O)C2)n1 (centres unmarked) [Example 5.26, 2-((1H-indol-3-yl)methyl)-7-(2-methyl-6-morpholinopyrimidin-4-yl)-2,7-diazaspiro[4.4]nonan-1-one]
[2]
  inhibition at 10 µM: 37%
[4]
  inhibition at 10 µM: 47%

## O=C1N(Cc2ccccc2-c2ccccc2)CCC12CCN(c1nc3ccccc3[nH]1)CC2 [Example 3.9, 8-(1H-Benzo[d]imidazol-2-yl)-2-(biphenyl-2-ylmethyl)-2,8-diazaspiro[4.5]decan-1-one]
[2]
  Ki: 343 nM
[4]
  Ki: 731 nM

## N#Cc1ccnc(N2CCC3(CCN(Cc4c[nH]c5ccccc45)C3=O)CC2)c1 [Example 3.3, 2-(2-((1H-Indol-3-yl)methyl)-1-oxo-2,8-diazaspiro[4.5]decan-8-yl)isonicotinonitrile]
[2]
  inhibition at 10 µM: 27%
[4]
  Ki: 496 nM
